The source of these data is patent EP2311818B1, “Combination of a 5-phenylthiazole compound as PI3 kinase inhibitor with an antiinflammatory, bronchodilatory or antihistamine drug” (Novartis AG, priority 2003, dated 2003).

Structures are written as SMILES.

T1 sequence (P48736 38-1102): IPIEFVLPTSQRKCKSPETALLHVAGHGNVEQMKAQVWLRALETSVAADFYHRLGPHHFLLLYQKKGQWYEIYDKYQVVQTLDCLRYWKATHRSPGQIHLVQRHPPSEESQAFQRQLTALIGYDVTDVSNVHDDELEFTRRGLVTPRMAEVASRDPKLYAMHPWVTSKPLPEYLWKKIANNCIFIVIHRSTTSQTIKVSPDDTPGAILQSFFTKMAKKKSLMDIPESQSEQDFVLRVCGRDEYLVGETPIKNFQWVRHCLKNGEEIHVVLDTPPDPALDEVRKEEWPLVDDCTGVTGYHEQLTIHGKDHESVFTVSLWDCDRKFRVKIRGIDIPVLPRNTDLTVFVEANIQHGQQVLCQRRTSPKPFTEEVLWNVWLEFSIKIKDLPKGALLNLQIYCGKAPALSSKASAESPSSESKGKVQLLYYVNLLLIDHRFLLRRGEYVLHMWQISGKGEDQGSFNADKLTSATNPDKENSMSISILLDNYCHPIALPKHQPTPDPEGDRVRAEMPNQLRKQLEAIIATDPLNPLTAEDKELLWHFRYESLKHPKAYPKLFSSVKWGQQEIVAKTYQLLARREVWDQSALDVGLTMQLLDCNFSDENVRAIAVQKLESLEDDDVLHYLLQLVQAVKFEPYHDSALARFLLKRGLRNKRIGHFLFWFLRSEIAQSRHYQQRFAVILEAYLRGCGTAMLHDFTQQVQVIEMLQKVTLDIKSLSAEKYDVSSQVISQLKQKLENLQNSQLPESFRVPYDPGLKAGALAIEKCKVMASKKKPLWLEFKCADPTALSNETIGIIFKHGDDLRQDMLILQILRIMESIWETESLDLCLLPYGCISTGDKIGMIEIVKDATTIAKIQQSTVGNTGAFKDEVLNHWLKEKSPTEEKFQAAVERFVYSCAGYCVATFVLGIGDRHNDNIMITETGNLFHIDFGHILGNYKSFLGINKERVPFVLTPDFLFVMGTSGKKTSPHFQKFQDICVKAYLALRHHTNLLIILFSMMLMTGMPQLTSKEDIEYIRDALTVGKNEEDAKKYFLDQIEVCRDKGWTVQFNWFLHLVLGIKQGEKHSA

The experiment concerns the target T1, recombinant GST-p110y (Homo sapiens, UniProt P48736).
T1 construct: Residues 38-1102 of human P13Ky are subcloned into the BamH1 and EcoR1 sites; made in house; host or cells: Sf9 (Spodoptera frugiperda) insect cells, baculovirus
In words: in vitro PI3Kγ kinase assay (Scintillation Proximity Assay, transfer of terminal phosphate of ATP to phosphatidylinositol). Format: biochemical. The settings on record: 12.5 µM ATP, 15 µg/ml phosphatidylinositol, room temperature, 60 minutes. The procedure: To express the recombinant protein, Sf9 (Spodoptera frugiperda 9) insect cells are routinely maintained at densities between 3 X 10^5 and 3 X 10^6 cells/ml in serum containing TNMFH medium (Sigma). Sf9 cells, at a density of 2 X 10^6 are infected with human GST-P13KγΔ34 baculovirus at a multiplicity of infection (m.o.i.) of 1 for 72 hours. The infected cells are harvested by centrifugation at 1400 g for 4 minutes at 4° C and the cell pellets are frozen at -80° C. […] The unbound flow through sample is collected by centrifugation at 1000g for 5 minutes at 4° C using a DENLEY™ centrifuge. The 1 ml GST resin containing bound material is transferred to a 15 ml FALCON™ centrifuge tube for subsequent washing and elution steps. Firstly a series of 3 cycles of washings (mixing by gentle inversion) is performed with 15 ml ice cold wash Buffer A (50 mM Tris-HCl pH 7.5, 1 % Triton X-100, 2 mM DTT) interspersed with centrifugation at 1000g for 5 minutes at 4° C. A final single wash step is performed with 15 ml ice cold wash Buffer B (50mM Tris-HCl pH 7.5, 2 mM DTT) and then centrifuged at 1000g for 5 minutes at 4° C. The washed GST resin is finally eluted with 4 cycles of 1 ml ice cold elution buffer (50 mM Tris-HCl pH 7.5, 10 mM reduced glutathione, 2 mM DTT, 150 mM NaCl, 1 mM NaF, 50% ethylene glycol and protease inhibitors) interspersed with centrifugation at 1000g for 5 minutes at 4° C.. Samples are aliquoted and stored at -20° C.
An in vitro kinase assay was established that measures the transfer of the terminal phosphate of adenosine triphosphate to phosphatidylinositol. The kinase reaction is performed in a white 96 well microtitre plate as a Scintillation Proximity Assay. […] The reaction is started by the addition of 20 µl of enzyme mix (40 mM Tris, 200 mM NaCl, 2 mM EGTA containing recombinant GST-p110y).
(In general: SPA uses beads or plates that emit light when radiolabelled molecules are held near them.)
As a reminder, the IC50 is the concentration at which inhibition is half-maximal. As to `CCc1cnc(CCNC(=O)Nc2nc(C)c(-c3ccc(S(C)(=O)=O)c(F)c3)s2)o1` [Example 178], the IC50 was 40 nM.

For `CC(=O)Nc1nc(C)c(-c2ccc(S(C)(=O)=O)c(-n3ccnc3)c2)s1` [Example 80, N-[5-(3-Imidazol-1-yl-4-methanesulfonyl-phenyl)-4-methyl-thiazol-2-yl]-acetamide], the IC50 worked out at 13 nM.

For the molecule `CCOC(=O)CCNC(=O)Nc1nc(C)c(-c2ccc(S(C)(=O)=O)c(F)c2)s1` [Example 165, 3-{3-[5-(3-Fluoro-4-methanesulfonyl-phenyl)-4-met4l-thiazol-2-yl]-ureido}-propionic acid ethyl ester], the IC50 turned out to be 19 nM.

As to `CC(=O)Nc1nc(C)c(-c2cc(Br)c(S(N)(=O)=O)c(Br)c2)s1` [Example 8, N-[5-(3.5-Dibromo-4-sulfamoyl-phenyl)-4-methyl-thiazol-2-yl]-acetamide], the IC50 was 9 nM.

As for `CC(=O)Nc1nc(C)c(-c2ccc(Cl)c(S(C)(=O)=O)c2)s1` [Example 48, N-[5-(4-Chloro-3-methanesulfonyl-phenyl)-4-methyl-thiazol-2-yl]-acetamide], the IC50 came out at 18 nM.

As to `Cc1nc(NC(N)=O)sc1-c1ccc(Cl)c(S(C)(=O)=O)c1` [Example 138, [5-(4-chloro-3-methanesulfonyl-phenyl)-4-methyl-thiazol-2-yl]-urea], the IC50 worked out at 5 nM.
